The numbers were not newly measured in US20240368046A1, “UREA-BASED C[…] WITH AN INORGANIC ACID” (Y ara International ASA, priority 2021, published 2024), which cites them from elsewhere.

Regarding urea sulphate, the pKa result was “about 1.5”.
